Reference: patent publication US9895334B2, “Treatment of virally induced lesions” (LEO Laboratories Limited, priority 2007, dated 2018)

Test system: Cottontail Rabbit Papilloma Virus (CRPV) cutaneous warts
Experiment: Cottontail Rabbit Papilloma Virus (CRPV) model of cutaneous warts: wart surface area after topical gel
Type: in vivo, Hra(NZW)SPF New Zealand White Rabbits
From the text: Efficacy of Ingenol-3-angelate (PEP005) Topical Gel in a Cottontail Rabbit Papilloma Virus (CRPV) model of cutaneous warts in Hra(NZW)SPF New Zealand White Rabbits.
Ch 25. In: Zak O, Sande M A, editors. Handbook of animal models of infection. New York: Academic Press; 1999. p. 1039-47). Concentrations of the inoculant were selected empirically based on published information for the CRPV model in which cutaneous papillomas (warts) were induced in rabbits (Christensen N D. Cottontail rabbit papillomavirus (CRPV) model system to test antiviral and immunotherapeutic strategies. Antiviral chemistry & chemotherapy 2005; 16(6):355-62). The percutaneous route was selected because this route has been successfully used to establish cutaneous papilloma (wart) formation in rabbits following inoculation with CRPV DNA.
Ten female Hra:(NZW)SPF New Zealand White (NZW) female rabbits were randomly assigned to four dose groups, three rabbits per dose group in Groups 1 through 3 and one rabbit in Group 4.
Four days before inoculation (DS-4), the backs of the rabbits were shaved over an area encompassing all eight exposure sites using an electric clipper with an appropriate blade. Following clipping, the skin was chemically depilated with Veet® (distributed by Reckitt Benckiser Inc., Parsippany, N.J., USA). The clipped area (approximately 10 cm×20 cm) extended from the shoulders to the hip joints of each rabbit and was approximately 10 cm wide (extending ventrolaterally from the dorsal midline approximately 5 cm on each side). Any re-growth of hair was carefully clipped, as needed throughout the study.
Three days before inoculation, rabbits were anesthetized with isoflourane/oxygen and the exposure sites on each rabbit were tattooed (Aims Black Pigment #242, AIMS Inc, Piscataway, N.J., USA, lot number F0707A, expiration date 30 Jun. 2008) on either side of each inoculation site. Each exposure site was carefully scarified using a scalpel blade (#60) to create a brush burn-like lesion in order to promote wart growth following inoculation. Rabbits were monitored constantly for signs of regular breathing and comfort while anesthetized and until full recovery from anesthesia. […]
Daily observations for development of the warts began during week 4 and continued until the first day of test article or placebo administration. The length and width of each cutaneous wart was recorded from the day of first observation to the completion of the study.
Dose administration of PEP005 Topical Gel or placebo began on DS 50. […] The treatment area of each dosing site was determined from the most recent length and width measurements of each wart (mm^2). […]

C/C=C(/C)C(=O)O[C@H]1C(C)=C[C@]23C(=O)[C@@H](C=C(CO)[C@@H](O)[C@]12O)[C@H]1[C@@H](C[C@H]3C)C1(C)C [PEP005, ingenol-3-angelate]
Average percentage change in wart area relative to Day 50 (0.1% PEP005, 3 day treatment, Days 51-57): 2.1%
Average percentage change in wart area relative to Day 50 (0.1% PEP005, 3 day treatment, Days 56-64): −4.7%
Average percentage change in wart area relative to Day 50 (0.1% PEP005, 5 day treatment, Days 51-57): 17.5%
Average percentage change in wart area relative to Day 50 (0.1% PEP005, 5 day treatment, Days 56-64): 3.9%
